{"source": "patent US8258134B2", "about": "“Pyridazinone glucokinase activators” (Hoffmann-La Roche Inc., priority 2008, dated 2012)", "target": "T1, Recombinant human liver GK1 (GST-GK) (Homo sapiens, UniProt P35557)", "T1 construct": "made in house; host or cells: E. coli", "T1 sequence (P35557 1-466 isoform P35557-2)": "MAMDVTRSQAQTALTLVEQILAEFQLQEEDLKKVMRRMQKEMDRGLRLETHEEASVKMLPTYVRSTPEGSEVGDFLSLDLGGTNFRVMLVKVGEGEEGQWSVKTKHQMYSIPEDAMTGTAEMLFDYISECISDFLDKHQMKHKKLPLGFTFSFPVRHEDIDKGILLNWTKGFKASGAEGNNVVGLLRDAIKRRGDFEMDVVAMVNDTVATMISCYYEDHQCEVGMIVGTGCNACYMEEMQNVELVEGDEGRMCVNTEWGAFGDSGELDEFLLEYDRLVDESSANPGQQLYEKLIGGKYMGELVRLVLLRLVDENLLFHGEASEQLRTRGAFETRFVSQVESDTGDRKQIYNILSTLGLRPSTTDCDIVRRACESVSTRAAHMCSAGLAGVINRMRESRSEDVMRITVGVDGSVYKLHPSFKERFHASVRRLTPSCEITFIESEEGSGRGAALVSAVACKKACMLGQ", "assay": "Glucokinase in vitro assay (G6PDH-coupled NADH generation, OD340)", "type": "biochemical", "details": "5 mM D-glucose; for fold activation @ 30 uM: 30 uM test compound; for SC1.5 average (concentration of activator that produced a 50% increase in the activity of GK): 30° C., pH 7.1, 10% DMSO", "procedure,_shortened": "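Activation readout is SC1.5, the activator concentration raising GK rate (OD340/min) 50% above 10% DMSO controls. The coupled reaction used GST-GK1 from E. coli, 5 mM glucose, 1 mM ATP, 1.8 mM NAD and 25 mM Hepes pH 7.1 at 30° C. Enzyme was added after a 10 min compound pre-incubation.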", "data": [{"smiles": "Cn1ccc(NC(=O)C(CC2CCCC2)n2ncccc2=O)n1", "note": "(centres unmarked) [Example 82, 3-Cyclopentyl-N-(1-methyl-1H-pyrazol-3-yl)-2-(6-oxo-6H-pyridazin-1-yl)-propionamide]", "values": [{"measurement": "fold activation @ 30 uM", "value": 1.3, "unit": "fold"}, {"measurement": "SC1.5 average (concentration of activator that produced a 50% increase in the activity of GK)", "value": "> 30", "unit": "µM"}]}, {"smiles": "O=C(Nc1nccs1)C(CC1CCCC1)n1ncc2ccccc2c1=O", "note": "(centres unmarked) [Example 83, 3-Cyclopentyl-2-(1-oxo-1H-phthalazin-2-yl)-N-thiazol-2-yl-propionamide]", "values": [{"measurement": "SC1.5 average (concentration of activator that produced a 50% increase in the activity of GK)", "value": 8.783, "unit": "µM"}]}, {"smiles": "CC(C)(O)Cn1ccc(NC(=O)C(CC2CCCC2)n2ncc3ccccc3c2=O)n1", "note": "(centres unmarked) [Example 84, 3-Cyclopentyl-N-[1-(2-hydroxy-2-methyl-propyl)-1H-pyrazol-3-yl]-2-(1-oxo-1H-phthalazin-2-yl)-propionamide]", "values": [{"measurement": "SC1.5 average (concentration of activator that produced a 50% increase in the activity of GK)", "value": 15.983, "unit": "µM"}]}, {"smiles": "Cn1ccc(NC(=O)C(CC2CCCC2)n2nc(Oc3ccccc3)ccc2=O)n1", "note": "(centres unmarked) [Example 85, 3-cyclopentyl-N-(1-methyl-1H-pyrazol-3-yl)-2-(6-oxo-3-phenoxy-6H-pyridazin-1-yl)-propionamide]", "values": [{"measurement": "fold activation @ 30 uM", "value": 1.3, "unit": "fold"}, {"measurement": "SC1.5 average (concentration of activator that produced a 50% increase in the activity of GK)", "value": "> 30", "unit": "µM"}]}, {"smiles": "Cc1ccc(C)c(Oc2cnn(C(CC3CCCC3)C(=O)Nc3ccn(CC(C)(C)O)n3)c(=O)c2)c1C", "note": "(centres unmarked) [Example 88, 3-Cyclopentyl-N-[1-(2-hydroxy-2-methyl-propyl)-1H-pyrazol-3-yl]-2-[6-oxo-4-(2,3,6-trimethyl-phenoxy)-6H-pyridazin-1-yl]-propionamide]", "values": [{"measurement": "SC1.5 average (concentration of activator that produced a 50% increase in the activity of GK)", "value": 0.204, "unit": "µM"}]}, {"smiles": "CC(C)(O)Cn1ccc(NC(=O)C(CC2CCCC2)n2ncc(Oc3cccc4c3OC(C)(C)C4)cc2=O)n1", "note": "(centres unmarked) [Example 89, 3-Cyclopentyl-2-[4-(2,2-dimethyl-2,3-dihydro-benzofuran-7-yloxy)-6-oxo-6H-pyridazin-1-yl]-N-[1-(2-hydroxy-2-methyl-propyl)-1H-pyrazol-3-yl]-propionamide]", "values": [{"measurement": "SC1.5 average (concentration of activator that produced a 50% increase in the activity of GK)", "value": 0.568, "unit": "µM"}]}, {"smiles": "CC(C)(O)Cn1ccc(NC(=O)C(CC2CCCC2)n2ncc(Oc3ccccc3C(C)(C)C)cc2=O)n1", "note": "(centres unmarked) [Example 90, 2-[4-(2-tert-Butyl-phenoxy)-6-oxo-6H-pyridazin-1-yl]-3-cyclopentyl-N-[1-(2-hydroxy-2-methyl-propyl)-1H-pyrazol-3-yl]-propionamide]", "values": [{"measurement": "SC1.5 average (concentration of activator that produced a 50% increase in the activity of GK)", "value": 0.5, "unit": "µM"}]}, {"smiles": "CC1CCCC(C)C1Oc1cnn(C(CC2CCCC2)C(=O)Nc2ccn(C[C@@H](O)CO)n2)c(=O)c1", "note": "(stereo partly drawn) [Example 91, 3-Cyclopentyl-N-[1-((R)-2,3-dihydroxy-propyl)-1H-pyrazol-3-yl]-2-[4-(2,6-dimethyl-cyclohexyloxy)-6-oxo-6H-pyridazin-1-yl]-propionamide]", "values": [{"measurement": "fold activation @ 30 uM", "value": 1.28, "unit": "fold"}, {"measurement": "SC1.5 average (concentration of activator that produced a 50% increase in the activity of GK)", "value": "> 30", "unit": "µM"}]}, {"smiles": "O=C(Nc1ccn(C[C@@H](O)CO)n1)C(CC1CCCC1)n1ncc(Oc2cccc(Cl)c2Cl)cc1=O", "note": "(stereo partly drawn) [Example 92, 3-Cyclopentyl-2-[4-(2,3-dichloro-phenoxy)-6-oxo-6H-pyridazin-1-yl]-N-[1-((R)-2,3-dihydroxy-propyl)-1H-pyrazol-3-yl]-propionamide]", "values": [{"measurement": "SC1.5 average (concentration of activator that produced a 50% increase in the activity of GK)", "value": 0.135, "unit": "µM"}]}, {"smiles": "Cc1ccc(Oc2cnn(C(CC3CCCC3)C(=O)Nc3ccn(C[C@@H](O)CO)n3)c(=O)c2)c2c1CCC2", "note": "(stereo partly drawn) [Example 93, 3-Cyclopentyl-N-[1-((R)-2,3-dihydroxy-propyl)-1H-pyrazol-3-yl]-2-[4-(7-methyl-indan-4-yloxy)-6-oxo-6H-pyridazin-1-yl]-propionamide]", "values": [{"measurement": "SC1.5 average (concentration of activator that produced a 50% increase in the activity of GK)", "value": 0.114, "unit": "µM"}]}, {"smiles": "O=C(Nc1ccn(C[C@@H](O)CO)n1)C(CC1CCCC1)n1ncc(OC2CCC2)cc1=O", "note": "(stereo partly drawn) [Example 94, 2-(4-Cyclobutoxy-6-oxo-6H-pyridazin-1-yl)-3-cyclopentyl-N-[1-((R)-2,3-dihydroxy-propyl)-1H-pyrazol-3-yl]-propionamide]", "values": [{"measurement": "fold activation @ 30 uM", "value": 1.33, "unit": "fold"}, {"measurement": "SC1.5 average (concentration of activator that produced a 50% increase in the activity of GK)", "value": "> 30", "unit": "µM"}]}, {"smiles": "O=C(Nc1ccn(C[C@@H](O)CO)n1)C(CC1CCCC1)n1ncc(Oc2ncccc2F)cc1=O", "note": "(stereo partly drawn) [Example 95, 3-Cyclopentyl-N-[1-((R)-2,3-dihydroxy-propyl)-1H-pyrazol-3-yl]-2-[4-(3-fluoro-pyridin-2-yloxy)-6-oxo-6H-pyridazin-1-yl]-propionamide]", "values": [{"measurement": "SC1.5 average (concentration of activator that produced a 50% increase in the activity of GK)", "value": 12.633, "unit": "µM"}]}, {"smiles": "O=C(Nc1ccn(C[C@@H](O)CO)n1)C(CC1CCCC1)n1ncc(Oc2cccc3[nH]ccc23)cc1=O", "note": "(stereo partly drawn) [Example 96, 3-Cyclopentyl-N-[1-((R)-2,3-dihydroxy-propyl)-1H-pyrazol-3-yl]-2-[4-(1H-indol-4-yloxy)-6-oxo-6H-pyridazin-1-yl]-propionamide]", "values": [{"measurement": "SC1.5 average (concentration of activator that produced a 50% increase in the activity of GK)", "value": 0.067, "unit": "µM"}]}, {"smiles": "Cc1occc(=O)c1Oc1cnn(C(CC2CCCC2)C(=O)Nc2ccn(C[C@@H](O)CO)n2)c(=O)c1", "note": "(stereo partly drawn) [Example 97, 3-Cyclopentyl-N-[1-((R)-2,3-dihydroxy-propyl)-1H-pyrazol-3-yl]-2-[4-(2-methyl-4-oxo-4H-pyran-3-yloxy)-6-oxo-6H-pyridazin-1-yl]-propionamide]", "values": [{"measurement": "SC1.5 average (concentration of activator that produced a 50% increase in the activity of GK)", "value": 1.895, "unit": "µM"}]}, {"smiles": "O=C(Nc1ccn(C[C@@H](O)CO)n1)C(CC1CCCC1)n1ncc(Oc2ccccc2OC(F)(F)F)cc1=O", "note": "(stereo partly drawn) [Example 98, 3-Cyclopentyl-N-[1-((R)-2,3-dihydroxy-propyl)-1H-pyrazol-3-yl]-2-[6-oxo-4-(2-trifluoromethoxy-phenoxy)-6H-pyridazin-1-yl]-propionamide]", "values": [{"measurement": "SC1.5 average (concentration of activator that produced a 50% increase in the activity of GK)", "value": 0.244, "unit": "µM"}]}, {"smiles": "Cc1cccc(Oc2cnn(C(CC3CCCC3)C(=O)Nc3ccn(C[C@@H](O)CO)n3)c(=O)c2)n1", "note": "(stereo partly drawn) [Example 99, 3-Cyclopentyl-N-[1-((R)-2,3-dihydroxy-propyl)-1H-pyrazol-3-yl]-2-[4-(6-methyl-pyridin-2-yloxy)-6-oxo-6H-pyridazin-1-yl]-propionamide]", "values": [{"measurement": "SC1.5 average (concentration of activator that produced a 50% increase in the activity of GK)", "value": 1.277, "unit": "µM"}]}, {"smiles": "Cc1ccc(F)c(Oc2cnn(C(CC3CCCC3)C(=O)Nc3ccn(C[C@@H](O)CO)n3)c(=O)c2)c1", "note": "(stereo partly drawn) [Example 100, 3-Cyclopentyl-N-[1-((R)-2,3-dihydroxy-propyl)-1H-pyrazol-3-yl]-2-[4-(2-fluoro-5-methyl-phenoxy)-6-oxo-6H-pyridazin-1-yl]-propionamide]", "values": [{"measurement": "SC1.5 average (concentration of activator that produced a 50% increase in the activity of GK)", "value": 0.101, "unit": "µM"}]}, {"smiles": "O=C(Nc1ccn(C[C@@H](O)CO)n1)C(CC1CCCC1)n1ncc(Oc2ccccc2CCO)cc1=O", "note": "(stereo partly drawn) [Example 101, 3-Cyclopentyl-N-[1-((R)-2,3-dihydroxy-propyl)-1H-pyrazol-3-yl]-2-{4-[2-(2-hydroxy-ethyl)-phenoxy]-6-oxo-6H-pyridazin-1-yl}-propionamide]", "values": [{"measurement": "SC1.5 average (concentration of activator that produced a 50% increase in the activity of GK)", "value": 0.732, "unit": "µM"}]}, {"smiles": "Cc1cc(C)nc(Oc2cnn(C(CC3CCCC3)C(=O)Nc3ccn(C[C@@H](O)CO)n3)c(=O)c2)n1", "note": "(stereo partly drawn) [Example 102, 3-Cyclopentyl-N-[1-((R)-2,3-dihydroxy-propyl)-1H-pyrazol-3-yl]-2-[4-(4,6-dimethyl-pyrimidin-2-yloxy)-6-oxo-6H-pyridazin-1-yl]-propionamide]", "values": [{"measurement": "SC1.5 average (concentration of activator that produced a 50% increase in the activity of GK)", "value": 0.56, "unit": "µM"}]}]}
